From patent publication US11053242B2, “[9,10-dimethoxy-3-(2-methylpropyl)-1H,2H,3H,4H,6H,7H,11BH-pyrido-[2,1-a]isoquinolin-2-yl]methanol and compounds, compositions and methods relating thereto” (Neurocrine Biosciences, Inc., priority 2015, dated 2021)

How the values were obtained:
[1] = molecular target: VMAT2 (human platelet homogenate) (Homo sapiens (Human), UniProt Q05940); test: Human VMAT2 Ki, slightly modified competition binding procedure (Table 11); conditions: 10 nM 3H-dihydrotetrabenazine;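 note: competition binding with 90 min incubation at 25 °C, after which filter-retained radioligand was measured by scintillation counting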
Method: Following incubation at 25° C. for 90 minutes, bound radioligand was collected by rapid filtration onto GF/B glass fiber filters using a Unifilter-96 Harvester (PerkinElmer). Filter plates were pre-treated with 0.1% polyethylenimine and allowed to dry overnight, and following harvesting the filter plates were washed with 800 d VMAT2 binding buffer. Bound radioligand was quantified by scintillation counting using a Topcount NXT (PerkinElmer).

[2] = In vitro human intestinal S9 hydrolysis assay (formation of compound 1-1); conditions: human intestinal S9, 1 uM, 37° C., up to 60 minutes
Method: Compounds (1 uM) were incubated with pooled intestinal S9 subcellular preparations (0.5 mg/mL total protein) from SD rats and humans without the addition of protease inhibitor phenylmethylsulfonylflouride. Incubations were carried out in a potassium phosphate buffer (50 mM). All concentrations were relative to the final incubation volume of 125 uL. Incubations were conducted at 37° C. for 0, 5, 10, 20, 40 and 60 minutes in a water bath and terminated by rapid mixing with 150 uL of ice-cold acetonitrile containing 1% formic acid. Internal standard was added and proteins were precipitated and removed by centrifugation prior to LC/MS analysis.

Sequence of VMAT2 (human platelet homogenate) (Q05940 whole entry): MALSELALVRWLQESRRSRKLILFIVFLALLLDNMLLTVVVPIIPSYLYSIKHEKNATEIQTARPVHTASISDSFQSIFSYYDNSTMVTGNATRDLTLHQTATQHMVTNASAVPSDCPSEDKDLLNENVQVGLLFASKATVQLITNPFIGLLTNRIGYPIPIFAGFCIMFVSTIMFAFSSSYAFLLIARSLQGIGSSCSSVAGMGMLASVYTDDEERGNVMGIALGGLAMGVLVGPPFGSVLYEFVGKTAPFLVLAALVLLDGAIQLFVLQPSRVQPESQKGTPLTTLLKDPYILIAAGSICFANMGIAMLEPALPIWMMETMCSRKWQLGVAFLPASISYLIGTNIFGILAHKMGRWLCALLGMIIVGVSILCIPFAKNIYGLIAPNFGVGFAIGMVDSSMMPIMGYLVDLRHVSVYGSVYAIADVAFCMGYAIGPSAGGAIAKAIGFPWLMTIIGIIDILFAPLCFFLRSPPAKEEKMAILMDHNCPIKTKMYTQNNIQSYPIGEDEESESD

Row | SMILES | Ki [1] [µM] | S9 Assay (ability to form compound 1-1) [2]
1 | COc1cc2c(cc1OC)[C@H]1C[C@@H](COC(=O)[C@H]3CCNC3)[C@H](CC(C)C)CN1CC2 [Compound 4-7, [(2R,3S,11bR)-9,10-dimethoxy-3-(2-methylpropyl)-1H,2H,3H,4H,6H,7H,11bH-pyrido[2,1-a]isoquinolin-2-yl]methyl (3S)-pyrrolidine-3-carboxylate] | < 0.01 | ++
2 | COc1cc2c(cc1OC)[C@H]1C[C@@H](COC(=O)C3CCNC3)[C@H](CC(C)C)CN1CC2 (stereo partly drawn) [Compound 4-8, [(2R,3S,11bR)-9,10-dimethoxy-3-(2-methylpropyl)-1H,2H,3H,4H,6H,7H,11bH-pyrido[2,1-a]isoquinolin-2-yl]methyl pyrrolidine-3-carboxylate] | < 0.01 | ++
3 | COc1cc2c(cc1OC)[C@H]1C[C@@H](COC(=O)CC3CCCNC3)[C@H](CC(C)C)CN1CC2 (stereo partly drawn) [Compound 4-10, [(2R,3S,11bR)-9,10-dimethoxy-3-(2-methylpropyl)-1H,2H,3H,4H,6H,7H,11bH-pyrido[2,1-a]isoquinolin-2-yl]methyl 2-(piperidin-3-yl)acetate] | < 0.01 | ++
4 | COc1cc2c(cc1OC)[C@H]1C[C@@H](COC(=O)[C@H]3CCCNC3)[C@H](CC(C)C)CN1CC2 [Compound 4-13, [(2R,3S,11bR)-9,10-dimethoxy-3-(2-methylpropyl)-1H,2H,3H,4H,6H,7H,11bH-pyrido[2,1-a]isoquinolin-2-yl]methyl (3S)-piperidine-3-carboxylate] | < 0.01 | +++
5 | COc1cc2c(cc1OC)[C@H]1C[C@@H](COC(=O)C3CCNCC3C)[C@H](CC(C)C)CN1CC2 (stereo partly drawn) [Compound 4-15, [(2R,3S,11bR)-9,10-dimethoxy-3-(2-methylpropyl)-1H,2H,3H,4H,6H,7H,11bH-pyrido[2,1-a]isoquinolin-2-yl]methyl 3-methylpiperidine-4-carboxylate] | < 0.01 | +
6 | COc1cc2c(cc1OC)[C@H]1C[C@@H](COC(=O)CC3CCNC3)[C@H](CC(C)C)CN1CC2 (stereo partly drawn) [Compound 4-16, [(2R,3S,11bR)-9,10-dimethoxy-3-(2-methylpropyl)-1H,2H,3H,4H,6H,7H,11bH-pyrido[2,1-a]isoquinolin-2-yl]methyl 2-(pyrrolidin-3-yl)acetate] | < 0.01 | +
7 | COc1cc2c(cc1OC)[C@H]1C[C@@H](COC(=O)C3(OC)CCNCC3)[C@H](CC(C)C)CN1CC2 [Compound 4-22, [(2R,3S,11bR)-9,10-dimethoxy-3-(2-methylpropyl)-1H,2H,3H,4H,6H,7H,11bH-pyrido[2,1-a]isoquinolin-2-yl]methyl 4-methoxypiperidine-4-carboxylate] | < 0.01 | ++
8 | COc1cc2c(cc1OC)[C@H]1C[C@@H](COC(=O)[C@@H]3CCNC3)[C@H](CC(C)C)CN1CC2 [Compound 4-26, [(2R,3S,11bR)-9,10-dimethoxy-3-(2-methylpropyl)-1H,2H,3H,4H,6H,7H,11bH-pyrido[2,1-a]isoquinolin-2-yl]methyl (3R)-pyrrolidine-3-carboxylate] | < 0.01 | ++
9 | COc1cc2c(cc1OC)[C@H]1C[C@@H](COC(=O)CC3CCCN3)[C@H](CC(C)C)CN1CC2 (stereo partly drawn) [Compound 4-28, [(2R,3S,11bR)-9,10-dimethoxy-3-(2-methylpropyl)-1H,2H,3H,4H,6H,7H,11bH-pyrido[2,1-a]isoquinolin-2-yl]methyl 2-(pyrrolidin-2-yl)acetate] | < 0.01 | ++
10 | COc1cc2c(cc1OC)[C@H]1C[C@@H](COC(=O)[C@@H]3CCCNC3)[C@H](CC(C)C)CN1CC2 [Compound 4-29, [(2R,3S,11bR)-9,10-dimethoxy-3-(2-methylpropyl)-1H,2H,3H,4H,6H,7H,11bH-pyrido[2,1-a]isoquinolin-2-yl]methyl (3R)-piperidine-3-carboxylate] | < 0.01 | +++
11 | COc1cc2c(cc1OC)[C@H]1C[C@@H](COC(=O)CCCN)[C@H](CC(C)C)CN1CC2 [Compound 4-31, [(2R,3S,11bR)-9,10-dimethoxy-3-(2-methylpropyl)-1H,2H,3H,4H,6H,7H,11bH-pyrido[2,1-a]isoquinolin-2-yl]methyl 4-aminobutanoate] | < 0.01 | ++
12 | COc1cc2c(cc1OC)[C@H]1C[C@@H](COC(=O)C[C@@H]3CCCN3)[C@H](CC(C)C)CN1CC2 [Compound 4-36] | < 0.01 | +++
13 | COc1cc2c(cc1OC)[C@H]1C[C@@H](COC(=O)C[C@H]3CCNC3)[C@H](CC(C)C)CN1CC2 [Compound 4-38, [(2R,3S,11bR)-9,10-dimethoxy-3-(2-methylpropyl)-1H,2H,3H,4H,6H,7H,11bH-pyrido[2,1-a]isoquinolin-2-yl]methyl 2-[(3R)-pyrrolidin-3-yl]acetate] | < 0.01 | +
14 | COc1cc2c(cc1OC)[C@H]1C[C@@H](COC(=O)NCCC(=O)O)[C@H](CC(C)C)CN1CC2 [Compound 5-1, 3-[({[(2R,3S,11bR)-9,10-dimethoxy-3-(2-methylpropyl)-1H,2H,3H,4H,6H,7H,11bH-pyrido[2,1-a]isoquinolin-2-yl]methoxy}carbonyl)amino]propanoic acid] | < 0.01 | +
15 | COc1cc2c(cc1OC)[C@H]1C[C@@H](COC(=O)NCCCC(=O)O)[C@H](CC(C)C)CN1CC2 [Compound 5-3, 4-[({[(2R,3S,11bR)-9,10-dimethoxy-3-(2-methylpropyl)-1H,2H,3H,4H,6H,7H,11bH-pyrido[2,1-a]isoquinolin-2-yl]methoxy}carbonyl)amino]butanoic acid] | > 0.5 | +
16 | COc1cc2c(cc1OC)[C@H]1C[C@@H](COC(=O)N3CCOC(CN(C)C)C3)[C@H](CC(C)C)CN1CC2 (stereo partly drawn) [Compound 5-4, [(2R,3S,11bR)-9,10-dimethoxy-3-(2-methylpropyl)-1H,2H,3H,4H,6H,7H,11bH-pyrido[2,1-a]isoquinolin-2-yl]methyl 2-[(dimethylamino)methyl]morpholine-4-carboxylate] | < 0.01 | +
17 | COc1cc2c(cc1OC)[C@H]1C[C@@H](COC(=O)NC3(C(=O)O)CC3)[C@H](CC(C)C)CN1CC2 [Compound 5-5, 1-[({[(2R,3S,11bR)-9,10-dimethoxy-3-(2-methylpropyl)-1H,2H,3H,4H,6H,7H,11bH-pyrido[2,1-a]isoquinolin-2-yl]methoxy}carbonyl)amino]cyclopropane-1-carboxylic acid] | 0.01 to 0.5 | +
18 | COc1cc2c(cc1OC)[C@H]1C[C@@H](COC(=O)N3CCOC(CC(=O)O)C3)[C@H](CC(C)C)CN1CC2 (stereo partly drawn) [Compound 5-6, 2-[4-({[(2R,3S,11bR)-9,10-dimethoxy-3-(2-methylpropyl)-1H,2H,3H,4H,6H,7H,11bH-pyrido[2,1-a]isoquinolin-2-yl]methoxy}carbonyl)morpholin-2-yl]acetic acid] | > 0.5 | +
